For the assay, the target named is receptor for advanced glycation end products (RAGE) (Homo sapiens, UniProt Q15109). Description: SPR. It counts as binding.

A word on the Kd: it is a measure of binding affinity in units of concentration. High values mean weaker binding, low ones tighter binding.

SMILES strings stand for the structures.

Chain of receptor for advanced glycation end products (RAGE) (Q15109 23-342 limits assumed): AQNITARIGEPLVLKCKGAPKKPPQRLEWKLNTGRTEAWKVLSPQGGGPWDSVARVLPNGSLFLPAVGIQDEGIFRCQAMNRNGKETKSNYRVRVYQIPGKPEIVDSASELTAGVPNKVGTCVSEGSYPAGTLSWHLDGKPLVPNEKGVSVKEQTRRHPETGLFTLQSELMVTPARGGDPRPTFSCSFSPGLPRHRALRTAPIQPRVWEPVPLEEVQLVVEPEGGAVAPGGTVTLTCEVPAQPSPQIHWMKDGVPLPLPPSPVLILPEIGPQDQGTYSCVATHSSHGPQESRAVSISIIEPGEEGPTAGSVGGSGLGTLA

Regarding `CCCCCCCC/C=C\CCCCCCCC(=O)OC[C@@H](O)COP(=O)(O)O` [LPA, 1-oleoyl-2-hydroxy-sn-glycero-3-phosphate], the Kd stood at 84.9 nM.

The record behind these values is PMC3526353 (The Journal of Experimental Medicine, 2012).
